This is an account of results in patent US7696194B2, “Visual function disorder improving agents” (Senju Pharmaceutical Co., Ltd., priority 2001, dated 2010).

Assay [1] deals with retinal ganglion cell. As to the kind of experiment: In vitro axon length of cultured retinal ganglion cells, Calcein AM image analysis (Example 5). The assay is classed as cell-based, Wistar rats. The conditions noted are these: 10 μM final concentration, N=3; for proportion of long neurites cells (axon not less than 100 μm) relative to the whole cells: control group 7%; for proportion of middle neurites cells (axon 21 μm-99 μm) relative to the whole cells: control group 12%. How it is done: In the same manner as in Examples 1 and 3, retinal ganglion cells isolated from the eye ball of 6 to 8-day-old Wistar rats (male-female mixture, SLC) were cultured (cell count: ca. 2000 cells/well). The test compounds (compounds 3-5) were added to the culture solution to the final concentration of 10 μM and respectively used as compound 3 addition group, compound 4 addition group and compound 5 addition group. The control was a test compound non-addition group. The compound 3 (4-[2-(2,3,4,5,6-pentafluorophenyl)acryloyl]cinnamic acid) was synthesized according to the description of Example 8 of JP-A-2000-44513 and used. As compound 4 (ethacrynic acid), one made by Sigma was used and as compound 5 (fasudil hydrochloride), a commercially-available fasudil hydrochloride hydrate injection: “Eril® Injection 30 mg” (produced and sold by Asahi Kasei Corporation) was used.
Using LIVE/DEAD® Viability/Cytotoxicity Kit (L-3224)(Molecular probes) and utilizing the fluorescence characteristics of viable cells by Calcein AM, Calcein AM was uptaken into the retinal ganglion cells and the level of extension of nerve axon of a retinal ganglion cell was observed under a fluorescence microscope. The images of the retinal extension samples observed under a microscope were directly imported into computer images from the fluorescence microscope and the length of the nerve axon was measured using an image analyzing soft (MacSCOP, MITANI CO.). The cells having an axon of not less than 100 μm in length were taken as long neurites cells, the cells having an axon of 21 μm-99 μm were taken as middle neurites cells, and the cells having an axon of not more than 20 μm in length were taken as short neurites cells (no axonal extension). The proportion (%) of the long neurites cells and middle neurites cells relative to the whole cells was calculated for each.

In assay [2] the test system is retinal ganglion cell. In words: In vitro extension of nerve axon of cultured retinal ganglion cells (Example 1). Type of assay: cell-based, Wistar rat. The following applies: then 10 μM compound added, further 24 hrs. How it is done:
Retinal ganglion cells were isolated from an eye ball of a Wistar rat, and cultured in a 48 well plate coated with polylysin (50 μg/mL, Sigma) and merosin (2 μg/mL, GIBCO) at 37° C. under the environment of 5% CO2, 95% air. The number of the cells was about 5000 cells/well. The culture solutions were a culture solution (fetal calf serum-free culture solution) of Neurobasal Medium (GIBCO) supplemented with 50 ng/mL BDNF (human brain-derived neurotrophic factor, Sigma), 50 ng/mL CNTF (rat cilliary neurotrophic factor, Sigma), 5 μM forskolin (Sigma), 1 mM glutamine (Wako) and B27 Supplement (GIBCO; 1 mL/50 mL culture solution), and a culture solution (FCS supplemented culture solution) of the aforementioned fetal calf serum-free culture solution supplemented with 10% fetal calf serum (hereinafter to be also referred to as FCS). After culture for 24 hrs in each culture solution, the group cultured in the FCS supplemented culture solution was divided into 2 groups, and one of them was used as a compound 1 addition group with the addition of 10 μM of compound 1, and the other was used as a compound 1 non-addition group. Similarly, the group cultured in the FCS-free culture solution was divided into a compound 1 addition group and a compound 1 non-addition group. […]

For assay [3], the system named is optic nerve cell. As to the kind of experiment: In vivo optic nerve cell regeneration after optic nerve cut and sciatic nerve autograft (Example 2). Also on record: species or system SD rats. The following applies: 120 μmol/L, 5 μL into the vitreous body plus gelatin pieces with 10 μmol/L around the autograft, 6 weeks after grafting. How it is done:
The optic nerve of SD rats weighing 220-280 g was cut under pentobarbital sodium (0.4 mg/kg, i.p.) anesthesia. Separately, the sciatic nerve of the optic nerve-severed rat was taken out in about 3-4 cm and autografted at an end of the optic nerve, which had been cut earlier. The compound 1 dissolved to 120 μmol/L was injected into the vitreous body by 5 μL immediately before cutting the optic nerve, and gelatin pieces (3 mm×3 mm; Spongel, Yamanouchi Pharm.) immersed in a 10 μmol/L solution of compound 1 were embedded around the autograft (compound 1 treatment group). For the non-treatment group, physiological saline was used instead of compound 1 for both the injection into the vitreous body and preparation of the gelatin pieces. […] The images of the retinal extension samples observed under a microscope were directly imported into computer images from the fluorescence microscope and the retrogradedly labeled retinal ganglion cells were counted using an image analyzing soft (MacSCOP, MITANI CO.). […]
The ratios (%) of the regenerated cell counts of the non-treatment group and compound 1 treatment group, relative to the optic nerve cell counts of the control, were calculated.

In assay [4] the test system is retinal ganglion cell. In words: In vitro extension of nerve axon of cultured retinal ganglion cells (Example 3). The assay is classed as cell-based, Wistar rat. How it is done:
Retinal ganglion cells were isolated from an eye ball of a Wistar rat and cultured in a 48 well plate coated with polylysine (50 μg/mL, Sigma) and merosin (2 μg/mL, GIBGO) at 37° C. under the environment of 5% CO2, 95% air. The number of cells was about 5000 cells/well. The culture solution was a culture solution (FCS-free culture solution) of Neurobasal Medium (GIBCO) supplemented with 50 ng/mL BDNF (human brain-derived neurotrophic factor, Sigma), 50 ng/mL CNTF (rat cilliary neurotrophic factor, Sigma), 5 μM forskolin (Sigma), 1 mM glutamine (Wako) and B27 Supplement (GIBCO; 1 mL/50 mL culture solution). After culture for 24 hrs in a culture solution of the aforementioned FCS-free culture solution supplemented with 10% FCS (FCS-supplemented culture solution containing Rho activator) and an FCS-free culture solution, the group cultured in the FCS-free culture solution was divided into 2 groups, and one of them was used as a compound 2 addition group with the addition of 10 μM of compound 2, and the other was used as a compound 2 non-addition group. After further culture for 24 hrs, the level of extension of nerve axon of a retinal ganglion cell was observed under an inverted light microscope. In addition, 1 μM lysophosphatidic acid (LPA), which is a Rho activator, was added to an FCS-free group and axon retraction due to Rho activation was also examined.

For assay [5], the system named is optic nerve cell. In words: In vivo optic nerve cell regeneration after optic nerve cut and sciatic nerve autograft (Example 4). Set-up: species or system SD rats. The following applies: for regenerated optic nerve cell count relative to the control group: control = physiological saline; for regenerated optic nerve cell count relative to the normal group: 5 μL into the vitreous body, 6 weeks after grafting. How it is done: The optic nerve of SD rats weighing 220-280 g was cut under pentobarbital sodium (0.4 mg/kg, i.p.) anesthesia. Separately, the sciatic nerve of the optic nerve-severed rat was taken out in about 3-4 cm and autografted at an end of the optic nerve, which had been cut-earlier. The compound 2 dissolved to 120 μM was injected into the vitreous body by 5 μL immediately before cutting the optic nerve, and gelatin pieces (3 mm×3 mm; Spongel, Yamanouchi Pharm.) immersed in a 10 μM solution of compound 2 were embedded around the autograft (compound 2 treatment group—1). For compound 2 treatment group—2, the compound 2 dissolved to 1.2 mM was injected into the vitreous body by 5 μL and 100 μM of compound 2 was used around the graft. In the control group, physiological saline was used instead of compound 2. During the grafting, attention was paid to avoid damage to the ophthalmic artery, and after grafting, the retinal vascular network was confirmed with a funduscope before breeding under a temperature 23° C.±2, humidity-55±10% environment. The rats were allowed to have a free access to a feed and water. After 6 weeks from the grafting operation, the graft was transversely cut under pentobarbital sodium (0.4 mg/kg, i.p.) anesthesia, and 4-Di-10ASP [4-(4-didecylaminostyryl)-N-methyl-propidium iodide, Sigma, St. Louis, Mo.] crystal (ca. 2 mg) was embedded in the cut area of the graft, thereby to retrogradely label retinal ganglion cells. […]. The images of the retinal extension samples observed under a microscope were directly imported into computer images from the fluorescence microscope and the retrogradely labeled retinal ganglion cells were counted using an image analyzing soft (MacSCOP, MITANI CO.) (FIG. 4). The obtained number of the retrogradely labeled retinal ganglion cells was taken as indicating the regenerated optic nerve cells. Meanwhile, the optic nerve of the rat free of grafting was cut, 4-Di-10ASP crystal (ca. 2 mg) was embedded similarly, and the number of the labeled retinal ganglion cells of the retinal extension sample was taken as the number of optic nerve cells of the normal group.
The ratios (%) of the regenerated optic nerve cell counts of the control group, compound 2 treatment group—1 and compound 2 treatment group—2, relative to the optical nerve cell counts of the control, were calculated.

Structures can show the parent of a compound that is named as a salt.

As to `O=S(=O)(c1cccc2cnccc12)N1CCCNCC1` [compound 5, fasudil hydrochloride], in assay [1], the “proportion of long neurites cells (axon not less than 100 μm) relative to the whole cells” value was 15% and the “proportion of middle neurites cells (axon 21 μm-99 μm) relative to the whole cells” value is reported as 53%.

As to `C[C@@H](N)c1ccc(C(=O)Nc2ccnc3[nH]ccc23)cc1.C[C@@H](N)c1ccc(C(=O)Nc2ccnc3[nH]ccc23)cc1.Cl.Cl.Cl.Cl.O.O.O` [compound 1, (R)-(+)-N-(1H-pyrrolo[2,3-b]pyridin-4-yl)-4-(1-aminoethyl)benzamide dihydrochloride 3/2 hydrate], the “level of extension of nerve axon of a retinal ganglion cell” value in assay [2] (FCS-free culture solution 24 hrs) is on record as “the extension of nerve axon became remarkable”; in assay [2] (FCS-supplemented culture solution 24 hrs, versus non-addition group), “clearly showed a retinal ganglion cell nerve axon extending action”. Besides, in assay [3], the “regenerated optic nerve cell count relative to the non-treatment group” value is on record as “about 2.4 times”. The “regenerated optic nerve cell count relative to the control group” value in assay [3] (control = rat free of grafting) is listed as “about 12%”.

Turning to `C=C(C(=O)c1ccc(C=CC(=O)O)cc1)c1c(F)c(F)c(F)c(F)c1F` [compound 3, 4-[2-(2,3,4,5,6-pentafluorophenyl)acryloyl]cinnamic acid], in assay [1], the “proportion of long neurites cells (axon not less than 100 μm) relative to the whole cells” value is reported as 22% and the “proportion of middle neurites cells (axon 21 μm-99 μm) relative to the whole cells” value is 23%.

For the molecule `C=C(CC)C(=O)c1ccc(OCC(=O)O)c(Cl)c1Cl` [compound 4, ethacrynic acid], in assay [1], the “proportion of long neurites cells (axon not less than 100 μm) relative to the whole cells” value is reported as 11% and the “proportion of middle neurites cells (axon 21 μm-99 μm) relative to the whole cells” value is reported as 45%.

For the molecule “lysophosphatidic acid [LPA, reference compound]”, the “axon retraction due to Rho activation” value in assay [4] (FCS-free culture solution 44 hrs, then 1 μM LPA, further 4 hrs) is listed as “axon retraction effect”.

Turning to `C[C@@H](N)c1ccc(C(=O)Nc2ccnc3[nH]ccc23)cc1.Cl` [compound 2, (R)-(+)-N-(1H-pyrrolo[2,3-b]pyridin-4-yl)-4-(1-aminoethyl)benzamide monohydrochloride], the “regenerated optic nerve cell count relative to the control group” value in assay [5] (treatment group-1: 120 μM intravitreal, 10 μM around the autograft) was “about 2.3 times”; in assay [5] (treatment group-2: 1.2 mM intravitreal, 100 μM around the graft), “about 4 times”. Moreover, the “regenerated optic nerve cell count relative to the normal group” value is given as “about 16%” in assay [5] (treatment group-1: 120 μM, 10 μM gelatin pieces around the autograft) and “about 28%” in assay [5] (treatment group-2: 1.2 mM, 100 μM around the graft). The “level of extension of nerve axon of a retinal ganglion cell” value in assay [4] (FCS-free culture solution 24 hrs, then 10 μM compound added, further 24 hrs) is “clearly showed an action of extending the nerve axon of the retinal ganglion cell”.
